From patent US4460587A, “5-Diazacycloalkyl imidazo[1,2-c][1,3]benzodiazepines” (Ciba-Geigy Corporation, priority 1982, dated 1984)

Assays:
[1] = tested on: learned conditioned avoidance behavior; test: conditioned avoidance (lever press to avoid electric foot shock) in rats; format: in vivo; details: Rattus norvegicus, oral, read-out: oral dose that disrupts avoidance behavior, e.g. decreases avoidance responses
Description: (§1) Each lever press postpones the shock for 30 seconds. Whenever the animal fails to press the lever once within said period, brief (0.5 sec.) shocks are delivered at 15 second intervals until the animal again presses the lever. Under control conditions the animals press the lever at a moderately steady rate and seldom receive more than five or six shocks during a 25-minute (rats) and up to 4-hour experimental session. Said compounds are administered to the animals 30, 90, 210 minutes prior to the experimental session, and block the learned conditioned avoidance behavior, manifested by a decrease in avoidance responding with a marked increase in shocks taken by the animal. Both the avoidance responses and failures (shocks received) are recorded separately for evaluation.

[2] = tested on: learned conditioned avoidance behavior; test: conditioned avoidance (lever press to avoid electric foot shock) in monkeys; format: in vivo, squirrel monkeys; details: Primates, oral, read-out: oral dose that disrupts avoidance behavior, e.g. decreases avoidance responses
Description: as §1

CN1CCN(C2=Nc3ccccc3Cc3nccn32)CC1 [example 1, 5-(4-methyl-1-piperazinyl)-11H-imidazo[1,2-c][1,3]benzodiazepine]
minimal effective dose [1]: ≤ 50 mg/kg
minimal effective dose [2]: ≤ 50 mg/kg
